Results reported in BindingDB's records for PubMed 7815359 (University of Pennsylvania, 1995).

Target: Mu-type opioid receptor (Rattus norvegicus, UniProt P33535)
Sequence (P33535 whole entry): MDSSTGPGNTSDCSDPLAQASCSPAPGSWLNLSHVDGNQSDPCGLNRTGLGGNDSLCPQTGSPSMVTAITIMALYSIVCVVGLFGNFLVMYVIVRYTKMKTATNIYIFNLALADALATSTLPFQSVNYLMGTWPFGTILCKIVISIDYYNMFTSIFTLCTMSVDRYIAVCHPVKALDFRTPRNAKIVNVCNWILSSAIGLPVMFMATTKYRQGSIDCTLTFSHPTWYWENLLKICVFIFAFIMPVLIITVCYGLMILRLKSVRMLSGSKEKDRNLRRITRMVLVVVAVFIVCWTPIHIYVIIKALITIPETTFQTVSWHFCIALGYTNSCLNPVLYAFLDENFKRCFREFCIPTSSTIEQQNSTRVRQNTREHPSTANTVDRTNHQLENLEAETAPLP

Substance: H-YGGFMTSEKSQTPLVTLFKNAIVKNAHKKGQ-OH [Beta-Endorphin]
- Ki: 1.7 nM
